Source: patent publication US6268537A, “Method of synthesis of lithium substituted borohydride reagents and method of synthesis of reactive lithium hydride” (priority 1999, dated 2001)

Assay: solubility of LiH in THF
Settings: room temperature

In the case of [H-].[Li+] [LiH, lithium hydride], the “solubility of LiH in THF” value is reported as “less than 0.00089 mol per liter”.
